The values that follow are results of earlier work, collected in article PMC12593371, “Whole-Body Disposition and Metabolism of [^14C]-2,4,4′-Trichlorobiphenyl (PCB28) Following Lung Administration in Rats” (Environmental Science & Technology, 2025).

Details of the series: method as in our prior study (number not given). The note with it: acute inhalation exposure to a PCB mixture, estimated dose 40 μg/rat; ref our prior study (number not given); cited from earlier work.

As for `Clc1cccc(-c2cccc(Cl)c2)c1` [PCB11], the serum elimination half-life is reported as 11.5 h.
